{"source": "patent US11427548B2", "about": "(Arvinas Operations, Inc., priority 2015, dated 2022)", "key": {"[1]": {"assay": "PROTAC subcutaneous pharmacokinetics in CD-1 mice", "type": "in vivo", "conditions": "male, plasma, CD-1 Mouse, 10 mg/kg SC dose; for AUC(0-t): read-out: Plasma Exposure AUC0-24; for Cmax: read-out: Plasma Exposure Cmax", "protocol": "9. PROTAC Prodrug Oral Pharmacokinetics and PROTAC Subcutaneous Phamacokinetics.\nRepresentative Pharmacokinetic Procedure\nMale CD-1 mice (6-8 weeks old, weighing 20-30 g, 3 per study) with free access to food and water were administered with the test article at 10 mg/kg either by oral gavage or sub-cutaneous injection in the formulation specified in tables 20 and 21, at 10 mL/kg.\nApproximately 0.04 mL blood samples were collected from the dorsal metatarsal vein serially at 0.25, 0.5, 1, 2, 4, 8 and 24 h timepoints; heparin was used as the anticoagulant. The samples were centrifuged at 4000 g for 5 min at 4° C. then stored at −75° C. prior to analysis.\nThe plasma samples were analysed via an LC/MS/MS method quantitating for unchanged, administered test article, and/or a derivative species as appropriate. WinNonlin (Phoenix™) was used for the pharmacokinetic calculations and modeling, to generate parameters such as Cmax and AUC."}, "Androgen Receptor [2]": {"target": "T1, Androgen Receptor (Homo sapiens, UniProt P10275)", "T1 construct": "endogenous in cells; host or cells: VCaP cells", "T1 sequence (P10275 1-920)": "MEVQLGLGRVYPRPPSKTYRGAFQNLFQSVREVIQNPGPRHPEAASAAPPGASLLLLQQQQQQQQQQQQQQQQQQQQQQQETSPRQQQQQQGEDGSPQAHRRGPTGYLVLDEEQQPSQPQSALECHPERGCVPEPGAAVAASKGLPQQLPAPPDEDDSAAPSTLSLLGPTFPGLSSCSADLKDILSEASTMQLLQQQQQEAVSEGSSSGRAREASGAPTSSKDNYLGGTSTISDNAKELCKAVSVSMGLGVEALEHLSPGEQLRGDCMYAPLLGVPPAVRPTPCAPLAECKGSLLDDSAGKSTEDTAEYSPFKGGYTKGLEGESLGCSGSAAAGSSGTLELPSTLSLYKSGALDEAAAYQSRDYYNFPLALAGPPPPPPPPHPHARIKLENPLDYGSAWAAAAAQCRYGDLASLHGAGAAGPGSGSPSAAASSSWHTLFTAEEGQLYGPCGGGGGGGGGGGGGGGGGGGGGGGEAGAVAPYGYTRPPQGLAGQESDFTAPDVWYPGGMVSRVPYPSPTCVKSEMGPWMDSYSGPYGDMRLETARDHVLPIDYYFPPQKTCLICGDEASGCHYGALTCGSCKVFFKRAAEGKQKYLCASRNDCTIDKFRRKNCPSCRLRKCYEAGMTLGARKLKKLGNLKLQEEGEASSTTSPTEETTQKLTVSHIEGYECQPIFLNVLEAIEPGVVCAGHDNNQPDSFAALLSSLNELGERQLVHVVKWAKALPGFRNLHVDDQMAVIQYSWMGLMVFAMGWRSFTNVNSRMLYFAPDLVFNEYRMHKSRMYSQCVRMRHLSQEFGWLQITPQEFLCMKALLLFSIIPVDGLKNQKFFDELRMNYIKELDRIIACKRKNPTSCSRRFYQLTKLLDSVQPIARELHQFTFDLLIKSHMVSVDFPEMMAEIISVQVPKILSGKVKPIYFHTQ", "assay": "Androgen Receptor ELISA assay (PathScan AR ELISA) in VCaP cells: AR degradation, Dmax and DC50", "type": "cell-based", "in_short": "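After 24 h exposure of VCaP cells (charcoal-stripped serum, 0.1 nM R1881 agonist, 0.1% DMSO) to seven half-log compound concentrations, residual AR in lysates was measured by PathScan ELISA (TMB absorbance, 450 nm). Cells were plated at 30,000/well and grown at least 3 days beforehand.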"}, "Androgen Receptor [3]": {"target": "T2, Androgen Receptor (Homo sapiens, UniProt P10275+P40337, T878A)", "T2 construct": "Compounds have been evaluated in this assay in LNCaP and/or VCaP cells utilizing similar protocols; endogenous in cells; host or cells: LNCaP cells", "T2 sequence (P10275 whole entry T878A)": "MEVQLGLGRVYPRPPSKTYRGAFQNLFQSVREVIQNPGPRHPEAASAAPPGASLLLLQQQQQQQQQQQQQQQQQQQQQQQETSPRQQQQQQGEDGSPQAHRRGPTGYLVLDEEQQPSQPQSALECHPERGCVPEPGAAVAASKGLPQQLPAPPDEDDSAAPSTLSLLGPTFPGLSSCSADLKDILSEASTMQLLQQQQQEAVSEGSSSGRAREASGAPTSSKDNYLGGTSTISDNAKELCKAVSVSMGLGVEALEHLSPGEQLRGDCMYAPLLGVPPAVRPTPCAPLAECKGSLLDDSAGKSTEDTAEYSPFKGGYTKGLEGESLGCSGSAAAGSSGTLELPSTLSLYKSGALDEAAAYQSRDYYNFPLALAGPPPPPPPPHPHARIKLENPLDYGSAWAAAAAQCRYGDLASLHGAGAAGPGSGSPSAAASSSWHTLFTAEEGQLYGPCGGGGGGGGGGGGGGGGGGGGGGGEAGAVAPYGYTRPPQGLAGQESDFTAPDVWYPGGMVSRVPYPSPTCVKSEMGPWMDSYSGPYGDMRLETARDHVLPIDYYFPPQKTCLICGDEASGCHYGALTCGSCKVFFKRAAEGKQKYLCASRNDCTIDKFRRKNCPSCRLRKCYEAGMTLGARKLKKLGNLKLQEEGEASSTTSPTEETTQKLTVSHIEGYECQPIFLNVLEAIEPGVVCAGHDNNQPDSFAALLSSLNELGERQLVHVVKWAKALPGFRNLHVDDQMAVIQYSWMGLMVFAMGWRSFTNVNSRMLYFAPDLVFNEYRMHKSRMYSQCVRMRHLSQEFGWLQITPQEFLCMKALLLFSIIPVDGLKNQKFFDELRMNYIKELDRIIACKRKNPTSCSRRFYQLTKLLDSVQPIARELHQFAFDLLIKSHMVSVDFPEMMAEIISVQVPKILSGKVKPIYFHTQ", "T2 sequence (P40337 whole entry)": "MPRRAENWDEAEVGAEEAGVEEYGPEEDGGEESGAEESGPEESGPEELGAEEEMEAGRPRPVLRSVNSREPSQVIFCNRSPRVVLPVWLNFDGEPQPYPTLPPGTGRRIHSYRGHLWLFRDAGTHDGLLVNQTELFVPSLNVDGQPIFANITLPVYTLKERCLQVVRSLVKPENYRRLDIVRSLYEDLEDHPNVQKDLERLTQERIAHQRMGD", "T2 sequence (Q15369 whole entry partner)": "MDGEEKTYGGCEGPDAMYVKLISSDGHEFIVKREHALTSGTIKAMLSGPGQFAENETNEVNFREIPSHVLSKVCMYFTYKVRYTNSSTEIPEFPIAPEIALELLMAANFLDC", "T2 sequence (Q15370 whole entry partner)": "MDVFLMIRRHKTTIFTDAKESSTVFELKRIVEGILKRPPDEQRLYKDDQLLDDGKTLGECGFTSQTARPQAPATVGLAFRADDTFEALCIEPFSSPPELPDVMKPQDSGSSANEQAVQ", "assay": "Androgen Receptor ELISA assay (PathScan AR ELISA) in LNCaP cells: AR degradation, Dmax and DC50", "type": "cell-based", "conditions": "for DC50: concentration that caused 50% Androgen Receptor degradation; for Dmax: highest percentage of Androgen Receptor degradation observed"}, "VCaP cells": {"tested_on": "VCaP cells", "assay": "VCaP cell proliferation assay (Cell Titer Glo), GI50", "type": "cell-based", "conditions": "Homo sapiens; VCaP cells, 0.1 nM R1881; Table 37; read-out: GI50, Inhibition of VCaP Proliferation", "protocol": "2. VCaP Cell Proliferation Assay.\nVCaP cells are plated 7,500/well 200 μL/well in VCaP assay medium [Phenol red free RPMI (Gibco Cat #11835-030); 5% Charcoal Stripped (Dextran treated) FBS (Omega Scientific, Cat #FB-04); Pen/Strep Life Technologies (Gibco Cat #: 10378-016); 0.1 nM R1881 (Sigma, Cat #R0908) is added upon the start of the assay, not during initial plating of the cells).\nThe assay was performed as follows: the cells are grown for a minimum of 3 days to deplete androgens; dosing of PROTACs and R1881 is performed as for AR ELISA; the baseline reading of Cell Titer Glo can be performed on day of dosing.\nVCaP cells with 0.1 nM R1881 will double once in 4 days. Gently draw off 110 μL of media so as not to disturb the adherent cells; add 110 μL of CTG; incubate with slow shaking for 20 minutes; and read luminescence on a plate reader."}, "[4]": {"conditions": "VCaP, highest percentage of Androgen Receptor degradation observed, VCaP cells (Table 32); read-out: VCaP Dmax (%)"}}, "note": "Like-named read-outs stand apart in the source and are kept apart here."}
{"smiles": "Cc1ncsc1-c1ccc(CNC(=O)[C@@H]2C[C@@H](O)CN2C(=O)[C@@H](NC(=O)COCCCOCCN2CCC(c3ccc(N4C(=S)N(c5ccc(C#N)c(C(F)(F)F)c5)C(=O)C4(C)C)cc3)CC2)C(C)(C)C)cc1", "note": "[Example 80, (2S,4R)-1-((S)-2-(2-(3-(2-(4-(4-(3-(4-cyano-3-(trifluoromethyl)phenyl)-5,5-dimethyl-4-oxo-2-thioxoimidazolidin-1-yl)phenyl)piperidin-1-yl)ethoxy)propoxy)acetamido)-3,3-dimethylbutanoyl)-4-hydroxy-N-(4-(4-methylthiazol-5-yl)benzyl)pyrrolidine-2-carboxamide]", "values": [{"measurement": "AUC(0-t)", "setting": "[1]; vehicle ELP-1", "result": 2530, "unit": "ng·h/mL"}, {"measurement": "Cmax", "setting": "[1]; vehicle ELP-1", "result": 180, "unit": "ng/mL"}, {"measurement": "Dmax", "setting": "Androgen Receptor [2]; VCaP, read-out: VCaP Dmax (%)", "result": "26 to 50", "unit": "%"}, {"measurement": "DC50", "setting": "Androgen Receptor [3]", "result": "> 501", "unit": "nM"}, {"measurement": "Dmax", "setting": "Androgen Receptor [3]", "result": "51 to 70", "unit": "%"}]}
{"smiles": "CC(C)(C)[C@H](NC(=O)COCCCCCOc1ccc(C(=O)N[C@H]2C(C)(C)[C@H](Oc3ccc(C#N)c(Cl)c3)C2(C)C)cc1)C(=O)N1C[C@H](O)C[C@H]1C(=O)NCc1ccc(-c2cncs2)cc1", "note": "[Example 150, (2S,4R)-1-[(2S)-3,3-dimethyl-2-(2-{[5-(4-{[trans-3-(3-chloro-4-cyanophenoxy)-2,2,4,4-tetramethylcyclobutyl]carbamoyl}phen-oxy)pentyl]oxy}acetamido)butanoyl]-4-hydroxy-N-{[4-(1,3-thiazol-5-yl)phenyl]methyl}pyrrolidine-2-carboxamide]", "values": [{"measurement": "AUC(0-t)", "setting": "[1]; vehicle ESD-1", "result": 40200, "unit": "ng·h/mL"}, {"measurement": "Cmax", "setting": "[1]; vehicle ESD-1", "result": 2750, "unit": "ng/mL"}, {"measurement": "GI50", "setting": "VCaP cells", "result": "≤ 50", "unit": "nM"}, {"measurement": "Dmax", "setting": "Androgen Receptor [2]; [4]", "result": "> 71", "unit": "%"}, {"measurement": "DC50", "setting": "Androgen Receptor [2]; concentration that caused 50% Androgen Receptor degradation, VCaP cells (Table 32); read-out: VCaP DC50", "result": "< 50", "unit": "nM"}]}
{"smiles": "Cc1ncsc1-c1ccc([C@H](C)NC(=O)[C@@H]2C[C@@H](O)CN2C(=O)[C@@H](NC(=O)COCC2CC3(C2)CC(COc2ccc(N4C(=S)N(c5ccc(C#N)c(C(F)(F)F)c5)C(=O)C4(C)C)cc2)C3)C(C)(C)C)cc1", "note": "(stereo partly drawn) [Example 202, (2S,4R)-1-[(2S)-2-[2-({6-[(4-{3-[4-cyano-3-(trifluoromethyl)phenyl]-5,5-dimethyl-4-oxo-2-sulfanylideneimidazolidin-1-yl}phenoxy)methyl]spiro[3.3]heptan-2-yl}methoxy)acetamido]-3,3-dimethylbutanoyl]-4-hydroxy-N-[(1S)-1-[4-(4-methyl-1,3-thiazol-5-yl)phenyl]ethyl] pyrrolidine-2-carboxamide]", "values": [{"measurement": "GI50", "setting": "VCaP cells", "result": "51 to 250", "unit": "nM"}, {"measurement": "Dmax", "setting": "Androgen Receptor [2]; VCaP, read-out: VCaP Dmax (%)", "result": "> 71", "unit": "%"}, {"measurement": "DC50", "setting": "Androgen Receptor [2]; read-out: VCaP DC50; VCaP cells; concentration that caused 50% Androgen Receptor degradation", "result": "< 50", "unit": "nM"}]}
{"smiles": "Cc1ncsc1-c1ccc(CNC(=O)[C@@H]2C[C@@H](O)CN2C(=O)[C@@H](NC(=O)COCCOc2ccc(-c3ccc(C(=O)N[C@H]4C(C)(C)[C@H](Oc5ccc(C#N)c(Cl)c5)C4(C)C)cc3)cc2)C(C)(C)C)cc1", "note": "[Example 182, (2S,4R)-1-[(2S)-3,3-dimethyl-2-(2-{2-[4-(4-{[trans-3-(3-chloro-4-cyanophenoxy)-2,2,4,4-tetramethylcyclobutyl]carbamoyl}phenyl)phenoxy]ethoxy}acetamido)butanoyl]-4-hydroxy-N-{[4-(4-methyl-1,3-thiazol-5-yl)phenyl]methyl}pyrrolidine-2-carboxamide]", "values": [{"measurement": "AUC(0-t)", "setting": "[1]; vehicle ELP-1", "result": 29200, "unit": "ng·h/mL"}, {"measurement": "Cmax", "setting": "[1]; vehicle ELP-1", "result": 1530, "unit": "ng/mL"}, {"measurement": "GI50", "setting": "VCaP cells", "result": "≤ 50", "unit": "nM"}, {"measurement": "Dmax", "setting": "Androgen Receptor [2]; [4]", "result": "> 71", "unit": "%"}]}
{"smiles": "Cc1ncsc1-c1ccc(CNC(=O)[C@@H]2C[C@@H](O)CN2C(=O)[C@@H](NC(=O)COCc2ccc(Oc3ccc(C(=O)N[C@H]4C(C)(C)[C@H](Oc5ccc(C#N)c(Cl)c5)C4(C)C)cc3)cc2)C(C)(C)C)cc1", "note": "[Example 183, (2S,4R)-1-[(2S)-3,3-dimethyl-2-(2-{[4-(4-{[trans-3-(3-chloro-4-cyanophenoxy)-2,2,4,4-tetramethylcyclobutyl]carbamoyl}phenoxy)phenyl]methoxy}acetamido)butanoyl]-4-hydroxy-N-{[4-(4-methyl-1,3-thiazol-5-yl)phenyl]methyl}pyrrolidine-2-carboxamide]", "values": [{"measurement": "GI50", "setting": "VCaP cells", "result": "≤ 50", "unit": "nM"}, {"measurement": "Dmax", "setting": "Androgen Receptor [2]; [4]", "result": "> 71", "unit": "%"}]}
{"smiles": "Cc1ncoc1-c1ccc([C@H](C)NC(=O)[C@@H]2C[C@@H](O)CN2C(=O)[C@@H](NC(=O)COCCCCOc2ccc(-c3ccc(N4C(=S)N(c5cnc(C#N)c(C(F)(F)F)c5)C(=O)C4(C)C)cc3)cc2)C(C)(C)C)cc1", "note": "[Example 195, (2S,4R)-1-[(2S)-2-(2-{4-[4-(4-{3-[6-cyano-5-(trifluoromethyl)pyridin-3-yl]-5,5-dimethyl-4-oxo-2-sulfanylideneimidazolidin-1-yl}phenyl)phenoxy]butoxy}acetamido)-3,3-dimethylbutanoyl]-4-hydroxy-N-[(1S)-1-[4-(4-methyl-1,3-oxazol-5-yl)phenyl]ethyl]pyrrolidine-2-carboxamide]", "values": [{"measurement": "GI50", "setting": "VCaP cells", "result": "51 to 250", "unit": "nM"}, {"measurement": "DC50", "setting": "Androgen Receptor [2]; VCaP cells; concentration that caused 50% Androgen Receptor degradation; read-out: VCaP DC50", "result": "< 50", "unit": "nM"}, {"measurement": "Dmax", "setting": "Androgen Receptor [2]; VCaP, VCaP cells; highest percentage of Androgen Receptor degradation; read-out: VCaP Dmax (%)", "result": "> 71", "unit": "%"}]}
{"smiles": "Cc1cc(-c2ccc(N3C(=S)N(c4ccc(C#N)c(C(F)(F)F)c4)C(=O)C3(C)C)cc2)ccc1OCCCCOCC(=O)N[C@H](C(=O)N1C[C@H](O)C[C@H]1C(=O)NCc1ccc(-c2scnc2C)cc1)C(C)(C)C", "note": "[Example 134, (2S,4R)-1-[(2S)-2-(2-{4-[4-(4-{3-[4-cyano-3-(trifluoromethyl)phenyl]-5,5-dimethyl-4-oxo-2-sulfanylideneimidazolidin-1-yl}phenyl)-2-methylphenoxy]butoxy}acetamido)-3,3-dimethylbutanoyl]-4-hydroxy-N-{[4-(4-methyl-1,3-thiazol-5-yl)phenyl]methyl}pyrrolidine-2-carboxamide]", "values": [{"measurement": "GI50", "setting": "VCaP cells", "result": "51 to 250", "unit": "nM"}, {"measurement": "Dmax", "setting": "Androgen Receptor [2]; VCaP, read-out: VCaP Dmax (%)", "result": "> 71", "unit": "%"}, {"measurement": "DC50", "setting": "Androgen Receptor [2]; read-out: VCaP DC50; concentration that caused 50% Androgen Receptor degradation, VCaP cells (Table 32)", "result": "< 50", "unit": "nM"}]}
{"smiles": "Cc1ncsc1-c1ccc(CNC(=O)[C@@H]2C[C@@H](O)CN2C(=O)[C@@H](NC(=O)COCCCCOc2ccc(-c3ccc(N4C(=S)N(c5ccc(C#N)c(C(F)(F)F)c5)C(=O)C4(C)C)cc3)cc2)C(C)(C)C)cc1", "note": "[Example 75, (2S,4R)-1-[(2S)-2-(2-{4-[4-(4-{3-[4-cyano-3-(trifluoromethyl)phenyl]-5,5-dimethyl-4-oxo-2-sulfanylideneimidazolidin-1-yl}phenyl)phenoxy]butoxy}acetamido)-3,3-dimethylbutanoyl]-4-hydroxy-N-{[4-(4-methyl-1,3-thiazol-5-yl)phenyl]methyl}pyrrolidine-2-carboxamide]", "values": [{"measurement": "GI50", "setting": "VCaP cells", "result": "51 to 250", "unit": "nM"}, {"measurement": "Dmax", "setting": "Androgen Receptor [2]; VCaP, read-out: VCaP Dmax (%)", "result": "> 71", "unit": "%"}, {"measurement": "DC50", "setting": "Androgen Receptor [2]; read-out: VCaP DC50; concentration that caused 50% Androgen Receptor degradation, VCaP cells", "result": "< 50", "unit": "nM"}, {"measurement": "DC50", "setting": "Androgen Receptor [3]", "result": "< 50", "unit": "nM"}, {"measurement": "Dmax", "setting": "Androgen Receptor [3]", "result": "> 71", "unit": "%"}]}
